We go through 6 compounds from patent US20080226596A1, “Therapeutic compositions and methods useful in treating hepatitis” (priority 2006, published 2008).

In series [1] the target is T1, PRL-3 (Homo sapiens, UniProt O75365).
T1 construct: GST (N); made in house; host or cells: DHSa (DH5a) bacteria
Put plainly: In vitro PTPase assay, recombinant PRL-3, DiFMUP substrate. The class given is biochemical. The following applies: comparable conditions. As for the experimental part: (§1) In vitro PTPase assays were used to determine the effects of compounds on recombinant PTPases, following established procedures using a synthetic phosphotyrosine peptide or DiFMUP as the substrate (Pathak et al., J. Imumol. 167, 3391 (2001)). Briefly, individual PTPases (0.1 µg/reaction) in 50 μL of PTPase buffer (50 mM Tris, pH 7.4) were incubated at 22° C. for 10 minutes or as indicated in the absence or presence of inhibitory compounds. Substrates (0.2 mM phosphotyrosine peptide) were then added and allowed to react at 22° C. for 18 hrs. PTPase activity of individual reactions was measured by adding 100 µL of malachite green solution (UBI) and then quantifying the amounts of free phosphate cleaved by the PTPase from the peptide substrate by spectrometry (OD660 nm). PTPase assays using DiFMUP as a substrate were conducted following a previously described procedure (Matter, et al., Biochem. Biophys. Res. Comm. 283, 1061 (2001)). Relative PTPase activities were calculated based on the formula: (PTPase activity in the presence of an inhibitory compound/PTPase activity in the absence of the compound)× 100%. To assess the reversibility of PTPase inhibition, GST fusion proteins of the PTPases bound on glutathione beads (Pharmacia) were pre-incubated with cold Tris buffer (50 mM Tris, pH 7.0) or Tris buffer containing the inhibitor at 4° C. for 30 minutes. The beads were then washed three times in cold Tris buffer or not washed prior to subjecting to in vitro PTPase assays.

Series [2] has as its target T2, PTP1B (Homo sapiens, UniProt P18031).
T2 construct: GST; purchased Upstate Biotechnology Inc. (Lake Placid, N.Y.)
Put plainly: In vitro PTPase assay, GST/PTP1B. It counts as biochemical. The following applies: 1-1,000 μg/ml. As for the experimental part:
(§2) In vitro PTPase activities were measured using the commercial protein tyrosine phosphatase assay kit (Upstate Biotechnology, Inc. (“UBI”)) following established procedure known to one of skill in the art. This assay measures the in vitro dephosphorylation of a synthetic phosphotyrosine peptide of the sequence Arg-Arg-Leu-Ile-Glu-Asp-Ala-Gle-Tyr-Ala-Ala-Arg-Gly, wherein the tyrosine is phosphorylated (SEQ ID NO: 3). Briefly, 0.01 µg of GST/PTPase fusion proteins was incubated in 50 μL of Tris buffer (10 mM Tris, pH 7.4) containing different concentrations of inhibitors or chemicals (0-1,000 μg/ml) at 22° C. for 10 minutes, followed by addition of 0.2 mM of the phosphotyrosine peptide and incubation at 22° C. for 18 hours. 100 μL of Malachite Green solution was added and incubated for 5 minutes, and the absorbance at 660 nm was measured after 5 minutes.
(§3) In vitro PTPase assays were used to determine the effects of levamisole (Sigma), pentamidine (American Pharmaceutical Partners, Inc.), and ketoconazole (Sigma) on recombinant PTPases, following established procedures (Pathak et al., J. Imumol. 167, 3391 (2001); Pathak et al., Leukemia 16, 2285 (2002), Yi et al., J. Immunol. 169, 5978 (2002)) using a synthetic phosphotyrosine peptide or DiFMUP as the substrate as detailed above in section I.A.2.

Series [3] relates to Baf3 cells. Put plainly: Baf3 cell proliferation assay. The class given is cell-based, murine. As for the experimental part:
The murine hematopoietic cell line Baf3 was maintained in RPMI 1640 medium supplemented with 10% fetal calf serum (FCS) and murine IL-3 (20 units/ml) as described previously in Damen et al., J. Biol. Chem. 270, 23402 (1995). Human myeloid cell line TF-1 was maintained in RPMI 1640 supplemented with 10% FCS and 40 ng/ml of recombinant human GM-CSF as described previously in Thomassen et al., Clin. Immunol. 95, 85 (2000). For cell proliferation assays, cells were washed in 10% FCS medium twice, resuspended in 10% FCS medium, incubated at 37° C. for 16 hours, and then cultured at 37° C. in 10% FCS medium containing various amounts of cytokines, sodium stibogluconate, or potassium antimonyl tartrate for 3-6 days as indicated. The cell numbers in proliferation assays were determined by an MTT assay or by microscopic cell counting as indicated.

Series [4] addresses T3, SHP-1 (Mus musculus, UniProt P29351).
T3 construct: made in house
Put plainly: In vitro PTPase assay, recombinant GST/SHP-1. It counts as biochemical. As for the experimental part:
as §2, §1, §3

Series [5] concerns Jak2/Stat5 tyrosine phosphorylation. Put plainly: IL-3-induced Jak2/Stat5 tyrosine phosphorylation in Baf3 cells. The following applies: potassium antimonyl tartrate. The class given is cell-based, murine. As for the experimental part: For induction of cellular protein phosphorylation by sodium stibogluconate or pervanadate, Baf3 cells were incubated in 0.1% FCS-RPMI 1640 medium at 37° C. for 16 hours. The cells were then washed twice in RPMI 1640 medium and incubated with sodium stibogluconate or pervanandate (0.1 mM) for various times prior to termination by lysing cells in cold lysis buffer (50 mM Tris, pH 7.4; 150 mM NaCl; 0.2 mM Na3VO4; 20 mm NaF; 1% Nonidet P-40; 2 mM PMSF; 20 µg/ml of Aprotinin and 1 mM of sodium molybdic acid). To determine the effect of sodium stibogluconate or potassium antimonyl tartrate on IL-3-induced Jak/Stat phosphorylation, Baf3 cells were deprived of the growth factor for 16 hours in 0.1% FCS RPMI 1640 medium and then incubated with or without sodium stibogluconate or potassium antimonyl tartrate for 10 minutes. IL-3 was next added to the cell suspension and incubated for various times. The Cells were then harvested and lysed in cold lysis buffer at 4° C. for 45 minutes. Total cell lysates (TCL) were separated in SDS-PAGE gels, blotted onto nitrocellulose membrane (Schleicher & Schuell), probed with specific antibodies and detected using an enhanced chemiluminescence kit (ECL, Amersham, Arlington Heights, Ill.).

Series [6] deals with T3, SHP-1. Put plainly: Reversibility of SHP-1 inhibition (washing of bead-bound GST/SHP-1). The class given is biochemical. The following applies: pre-incubated 4° C. 30 minutes, washed 3 times. The source says:
The beads were then either subjected to in vitro PTPase assays or washed 3 times in Tris buffer then subjected to in vitro PTPase assays.

Series [7] concerns NB4 cells. Put plainly: NB4 cell cycle analysis. The class given is cell-based, human. The following applies: 3 days; sodium stibogluconate 250 μg/ml, ATRA 1 μM. As for the experimental part: The cell cycle was analyzed by flow cytometry after 3 days of culture of NB4 cells in the absence or presence of sodium stibogluconate (250 µg/ml) or ATRA (1 μM). Briefly, the cells were fixed in cold ethanol and incubated for 30 minutes at 4° C. in the dark with a solution of 50 […], 1 mg/ml RNase and 0.1% NP-40. Analysis was performed immediately after staining using the CELLFIT program (Becton Dickinson, Mountain View, Calif.).

Series [8] deals with U937 cells. Put plainly: U937 differentiation, NBT reduction. It counts as cell-based, human. The following applies: day 6; sodium stibogluconate 400 μg/ml, GM-CSF 25 ng/ml. As for the experimental part: (§4) Differentiation of AML cell lines was assessed by their ability to produce superoxide as measured by reduction of NBT to formazan and by analysis of expression of CD11b surface marker by flow cytometry. For NBT reduction, each cell suspension was mixed with an equal volume of solution containing 1 mg/ml of NBT (Sigma) and 2.5 µg/ml of TPA for 30 minutes at 37° C. After incubation, cells containing the purple formazan deposits and cells devoid of NBT-reducing activity (white cells) in each sample were determined by counting 200 cells under microscope. Data is expressed as a percentage based on the following ratio: purple cells/purple+white cells. For analysis of cell surface antigens, cells were exposed to phycoerythrin (PE)-conjugated murine anti-human CD11b (DAKO Corp., Carpinteria, Calif.). Analysis of fluorescence was performed on a FACScan flow cytometer (Beckton Dickinson, Mountain View, Calif.).

The subject of series [9] is HL-60 cells. Put plainly: HL-60 differentiation, NBT reduction. The following applies: day 6; sodium stibogluconate 400 μg/ml, GM-CSF 25 ng/ml. The class given is cell-based, human. As for the experimental part: as §4
Series [10] deals with T4, MKP1 (Homo sapiens, UniProt P28562).
T4 construct: GST (N); made in house; host or cells: DH5a bacteria
T4 sequence (P28562 1-367): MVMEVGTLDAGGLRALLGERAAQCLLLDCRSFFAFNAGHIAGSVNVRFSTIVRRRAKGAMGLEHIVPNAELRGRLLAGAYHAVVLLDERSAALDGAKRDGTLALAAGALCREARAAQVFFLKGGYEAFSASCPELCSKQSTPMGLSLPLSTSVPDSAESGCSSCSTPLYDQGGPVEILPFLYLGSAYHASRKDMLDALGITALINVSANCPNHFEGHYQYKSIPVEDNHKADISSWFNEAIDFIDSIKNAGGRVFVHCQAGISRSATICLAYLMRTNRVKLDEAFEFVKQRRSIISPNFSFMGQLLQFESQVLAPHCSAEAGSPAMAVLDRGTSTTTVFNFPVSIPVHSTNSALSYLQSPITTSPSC
Put plainly: In vitro PTPase assay, GST/MKP1. The class given is biochemical. As for the experimental part: as §2, §3

In series [11] the test system is GSTm8. Put plainly: In vitro PTPase assay, GSTm8. It counts as biochemical. The following applies: 3-4 μg/ml or 10-100 μg/ml.
Source text: as §3

Series [12] relates to NB4 cells. Put plainly: NB4 differentiation, NBT reduction. It counts as cell-based, human. The following applies: comparable conditions. As for the experimental part:
as §4

Values joined by “and” are separate entries in the source; they are usually repeats but may differ in a detail not shown here. Equal values may be shown once.

T3 sequence (P29351 whole entry): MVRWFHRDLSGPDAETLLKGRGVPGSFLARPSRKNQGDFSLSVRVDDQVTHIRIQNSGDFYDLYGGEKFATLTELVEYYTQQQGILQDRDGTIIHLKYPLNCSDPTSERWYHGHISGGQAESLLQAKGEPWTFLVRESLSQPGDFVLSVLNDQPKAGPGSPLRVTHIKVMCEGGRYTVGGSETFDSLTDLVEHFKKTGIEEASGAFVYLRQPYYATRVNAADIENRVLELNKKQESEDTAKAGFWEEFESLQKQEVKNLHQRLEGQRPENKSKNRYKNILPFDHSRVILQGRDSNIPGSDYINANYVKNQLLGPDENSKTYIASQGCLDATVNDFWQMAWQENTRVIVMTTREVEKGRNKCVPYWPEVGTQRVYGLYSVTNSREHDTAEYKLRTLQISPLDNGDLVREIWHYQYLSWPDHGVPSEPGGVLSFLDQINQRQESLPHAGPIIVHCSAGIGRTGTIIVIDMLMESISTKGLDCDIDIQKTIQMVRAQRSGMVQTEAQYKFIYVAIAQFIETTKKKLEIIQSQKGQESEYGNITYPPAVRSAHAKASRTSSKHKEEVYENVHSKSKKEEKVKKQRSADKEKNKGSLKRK
T1 sequence (O75365 whole entry): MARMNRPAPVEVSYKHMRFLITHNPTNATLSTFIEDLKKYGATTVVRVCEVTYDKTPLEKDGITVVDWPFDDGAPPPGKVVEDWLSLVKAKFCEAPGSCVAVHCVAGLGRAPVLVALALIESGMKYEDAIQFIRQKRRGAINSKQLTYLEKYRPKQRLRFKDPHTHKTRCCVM
T2 sequence (P18031 whole entry, species assumed): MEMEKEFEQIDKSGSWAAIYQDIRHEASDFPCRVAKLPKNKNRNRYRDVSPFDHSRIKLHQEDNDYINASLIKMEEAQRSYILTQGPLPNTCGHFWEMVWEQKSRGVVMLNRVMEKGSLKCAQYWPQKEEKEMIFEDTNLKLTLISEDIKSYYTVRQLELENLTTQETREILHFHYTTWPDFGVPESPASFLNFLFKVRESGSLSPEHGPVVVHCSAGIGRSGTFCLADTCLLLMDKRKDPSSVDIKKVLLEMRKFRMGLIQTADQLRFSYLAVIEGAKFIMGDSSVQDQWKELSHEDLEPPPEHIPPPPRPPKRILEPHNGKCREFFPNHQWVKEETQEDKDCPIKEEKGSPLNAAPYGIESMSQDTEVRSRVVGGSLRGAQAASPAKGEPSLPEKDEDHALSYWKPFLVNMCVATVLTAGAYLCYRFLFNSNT

Take `[Na+].[Na+].[Na+].[O]=[V]([O-])([O-])[O-]` [sodium orthovanadate]: the “inhibition of PRL-3 with DiFMUP substrate” value in series [1] is recorded as “less effective than sodium stibogluconate”.

Regarding `O.O.O.O=C([O-])[C@H]([O-])[C@@H]([O-])C(=O)[O-].O=C([O-])[C@H]([O-])[C@@H]([O-])C(=O)[O-].[K+].[K+].[Sb+3].[Sb+3]` [potassium antimonyl tartrate], the “inhibition of PTP1B” value in series [2] is “no detectable inhibition”. Besides, in series [3], the “toxicity against Baf3 cells” value is “marked toxicity against Baf3 cells”. Moreover, the “IL-3-induced proliferation of Baf3 cells” value in [3] (IL-3 10 units/ml, three days) is “failed to enhance”. For the same compound, the “inhibition of SHP-1” value in series [4] (1-1,000 μg/ml) is listed as “no detectable inhibition”. Also, in [5], the “IL-3-induced Stat5 phosphorylation” value is recorded as “failed to enhance IL-3-induced Stat5 phosphorylation”.

On to `Cc1ccc(C(=O)Nc2ccc(S(=O)(=O)O)c3cc(S(=O)(=O)O)cc(S(=O)(=O)O)c23)cc1NC(=O)c1cccc(NC(=O)Nc2cccc(C(=O)Nc3cc(C(=O)Nc4ccc(S(=O)(=O)O)c5cc(S(=O)(=O)O)cc(S(=O)(=O)O)c45)ccc3C)c2)c1` [Suramin], for which the “inhibition of SHP-1 compared with sodium stibogluconate” value in [4] (under comparable conditions) is “less effective”. Also, the “inhibition of GST/SHP-1 after washing” value in [6] is listed as “almost completely removed by the washing process”. For the same compound, the “inhibition of PRL-3 with DiFMUP substrate” value in [1] is given as “less effective than sodium stibogluconate”.

For `CC1=C(/C=C/C(C)=C/C=C/C(C)=C/C(=O)O)C(C)(C)CCC1` [ATRA, All-trans-retinoic acid], in [7], the “NB4 cell cycle effect” value is on record as “arrested at G1 phase”. Further, the “NBT-positive (differentiated) U937 cells” value in [8] was 72% and 73%. For the same compound, the “NBT-positive (differentiated) HL-60 cells” value in [9] came to 90%.

With `c1ccc([C@H]2CN3CCSC3=N2)cc1` [levamisole], in series [4] (3-4 μg/ml or 10-100 μg/ml), the “inhibitory activity against SHP-1” value is “no obvious inhibitory activity”. In [10], the “inhibition of MKP1” value was “substantial inhibition”. Besides, in [11], the “inhibitory activity against GSTm8” value is on record as “no obvious inhibitory activity”.

For the compound GM-CSF: recombinant human GM-CSF, in series [8], the “NBT-positive (differentiated) U937 cells” value is listed as 8-10%. The “NBT-positive (differentiated) HL-60 cells” value in series [9] is 8-10%. Moreover, the “effect of GM-CSF on NB4 differentiation” value in [12] is reported as “no detectable effect”.
